Patent US10648979B2, “Molecular probes for detecting gram-negative bacteria in vitro and in vivo” (priority 2014, dated 2020)
Bridge positions count the residues as written; N and C are the ends. Square brackets hold non-standard residues; d marks the D form. Peptide text beside a SMILES is read from it. * marks the point of attachment. ξ: configuration not given here. NBD = O=[N+]([O-])c1ccc(*)c2nonc12; dDab = NCC[C@@H](N)C(=O)O; Dab = NCC[C@H](N)C(=O)O; AEEA = NCCOCCOCC(=O)O; ξDab = NCCC(N)C(=O)O

Assays:
[1] = Emission spectra of probes in PBS or DMSO (hydrophobic environment); assay type: physicochemical; details: excited at 488 nm; NBD-UBIdend 5 μM, NBD-UBINle 15 μM, NBD-PMX 10 μM
Method: A) Emission spectra shown for NBD-UBIdend (5 μM) and NBD-UBINle (15 μM) in the presence of PBS or DMSO (hydrophobic environment) when excited at 488 nm wavelength. B) Emission spectra shown for NBD-PMX (10 μM) in the presence of PBS or DMSO (hydrophobic environment) when excited at 488 nm wavelength. The fluorescence of both probes greatly increases under hydrophobic conditions as would be present upon binding to the bacterial membrane target.
To confirm the fluorescent reporter NBD retains its characteristics when coupled with our peptide moieties we measured the fluorescence of the compounds in conditions to mimic a hydrophobic environment (DMSO).

[2] = tested on: bacteria instilled into ovine lung segments; assay: Ex vivo ovine lung model of bacterial infection, in situ labelling imaged by FCFM
Method: FIG. 9: Ex vivo model of bacterial infection. A) Ovine lungs were harvested, ventilated and placed in a neonatal incubator with ambient temperature of 37° C. Pulmonary segments were instilled with PBS (control) or bacteria via bronchoscopy. Probes were then instilled and segments imaged with fibered confocal fluorescence microscopy (FCFM) using 488 nm Laser Scanning Unit (LSU). […] Bacteria (MSSA) instilled into segments of ovine lung and lavaged at 1, 3 and 5 hours (n=3), plated for CFU/ml and counted following 16 hour incubation.
NBD-UBIdend and NBD-PMX were assessed for in situ specificity and sensitivity in an ex vivo ovine model of bacterial infection (FIG. 9). […] We observed identical patterns with Calcein-labelled bacteria and Green Fluorescent Protein-expressing S. aureus which were instilled into the lung and imaged with FCFM (FIG. 10A). This pattern is reproduced identically by instilling bacteria “pre-labelled” with NBD-UBIdend and NBD-PMX into lung segments.
Following this thorough characterisation of the model and positive controls, we instilled PBS or VAP-relevant bacteria into distinct segments within the ex vivo lung model, followed by the microdosed delivery of the probes.
All compounds have undergone biological assessment.
Bacteria were grown to midlog phase in 400 ml TSB, pelleted by centrifugation and resuspended in 2 ml PBS. This was mixed with 18 ml molten tryptic-soy agar (50° C.) and injected rapidly into vortexing mineral oil +0.01% Span 80, pre-warmed to 50° C. This was then rapidly cooled to 4° C. whilst continuing to vortex to allow the beads to set. Bacterial agar beads were pelleted by centrifugation (20 minutes, 3000 g) and washed in 0.5% sodium deoxycholate (SDC) in PBS (20 minutes, 3000 g), followed by 0.25% SDC (20 minutes, 3000 g) in PBS, washed in PBS (10 minutes, 3000 g) and 3×PBS (5 minutes, 200 g). Beads were resuspended at 50% v/v in PBS for instillation.
From a cohort of surplus stock ewes which were destined for cull, one ewe was identified and terminally euthanized with an overdose of anaesthetic. Death was confirmed and the trachea was identified and clamped in situ. The thoracic cavity was then accessed and the lungs were freed from surrounding tissues and organs and the heart/lung was removed en block. The right pulmonary artery was identified, cannulated and perfused with 1000 ml 0.9% NaCl. Once filling of the left ventricle was confirmed an incision was made to allow free drainage and perfusion continued until the drainage from the left atrium was clear. The lungs were then transferred to the Queen's Medical Research Institute and the trachea was intubated with an 8.0 endotracheal tube immediately following clamp release. […]

[3] = tested on: bacteria over lung surfactant constituents; assay: Bacterial labelling in the presence of lung surfactant constituents (confocal); assay type: cell-based
Method: Ratio of bacterial fluorescence intensity:surfactant fluorescent intensity quantified from confocal microscopy images.
In vitro experiments were conducted using lung surfactant constituents to investigate the ability of probes to preferentially detect bacteria in the presence of large amounts of surfactant. […] A suspension of surfactant constituents in buffered saline was prepared (20 mg/ml, 65% dipalmitoylphosphatidylcholine, 30% phosphatidylglycerol, 5% palmitic acid with 1 mg/ml tyloxapol as a spreading agent) and incubated with and without A549 epithelial cell monolayer.
Surfactant 5 μg 1,2-Dipalmitoyl-sn-glycero-3-phosphocholine (DPPC) and 2.5 μg L-α-Phosphatidyl-DL-glycerol sodium salt (from egg yolk lecithin; PG) were dissolved in 500 μl chloroform and evaporated under nitrogen to a thin lipid film in a round bottom flask. The lipid film was rehydrated with PBS at 48° C. for 1 hour with agitation (750 rpm) to generate multilammelar vesicles (MLV). These were diluted 1:4 for use in confocal experiments.

bacteria in ovine lung = assay: Automated image processing of entire FCFM videos from ovine lung; details: 80 spots per frame threshold
Source text: FIG. 19: Image Processing Algorithms delineate ‘positive’ and ‘negative’ frames from FCFM data A) raw data for a frame that is deemed positive or negative. B) Without pre-processing, spot-detection is ineffective. Following estimation of background noise C), high-pass filtering D) and appropriate thresholding E), the current algorithm detect minimal punctate signal in negative frames F).
Analysis of NBD-UBIdend videos with thresholding at 80 spots per frame and an arbitrary cut-off of 10% enables objective detection of bacteria using a combination of Laplacian of Gaussian (LoG) and Difference of Gaussians (DoG) positive frames. […]
We have begun to develop bespoke image analysis/processing strategies to perform rapid real-time objective analysis of the large datasets generated by the probe/FCFM platform. […] These signal and image processing algorithms will be rapidly iterated in readiness for clinical application, and we expect significant components of machine-learning to be incorporated into further optimisation of NBD-UBIdend and NBD-PMX datasets.
Spots are enhanced in an image by convolving with a LoG or DoG filter. […] Finally, spots are detected with LoG or DoG. […]

## CC(C)C[C@@H]1NC(=O)[C@@H](Cc2ccccc2)NC(=O)[C@@H](CCN)NC(=O)C(NC(=O)[C@H](CCN)NC(=O)[C@@H](NC(=O)COCCOCCNc2ccc([N+](=O)[O-])c3nonc23)[C@@H](C)O)CCNC(=O)[C@@H]([C@H](C)O)NC(=O)[C@H](CCN)NC(=O)[C@H](CCN)NC1=O (some centres unmarked) [NBD-PMX] ({NBD-AEEA}-T[Dab][ξDab][dDab][dF]L[Dab][Dab][dT]; lactam 3-C)
[1]
  fluorescence in DMSO compared to PBS: significant increase in fluorescence
[2]; FCFM
  detection of bacteria-coated agarose beads in situ: when beads are coated with bacteria a signal is seen
  in situ labelling of bacteria in segments instilled with bacteria: demonstrated labelling
[2]; MSSA, MRSA, S. pneumoniae
  signal in segments with PBS or gram-positive bacteria: no signal in segments with PBS or gram-positive bacteria
[2]; P. aeruginosa (PA01, J3284), K. pneumoniae, E. coli
  signal in segments instilled with gram-negative bacteria: the same signal as in the ‘positive controls’
[3]
  selectivity for bacterial labelling over lung surfactant constituents: possess selectivity for bacterial labelling over lung surfactant constituents
[3]; equimolar NBD concentrations
  bacterial:surfactant fluorescence intensity compared with linear NBD-UBINle: significantly higher bacterial: surfactant intensity than NBD-UBInle
Bacteria in ovine lung
  detection by automated image processing (percentage positive frames, YES/NO): unequivocal detection of bacteria and Gram status
